The source of these data is ChEMBL document CHEMBL1141239, “New series of potent delta-opioid antagonists containing the H-Dmt-Tic-NH-hexyl-NH-R motif” (Bioorg Med Chem Lett, 2005).

SMILES strings stand for the structures. pIC50, pKi: −log10 of the molar value. Square brackets hold non-standard residues; d marks the D form. Peptide text beside a SMILES is read from it. Dmt = Cc1cc(O)cc(C)c1C[C@H](N)C(=O)O; Tic = O=C(O)[C@@H]1Cc2ccccc2CN1

T1 sequence (P32300 whole entry): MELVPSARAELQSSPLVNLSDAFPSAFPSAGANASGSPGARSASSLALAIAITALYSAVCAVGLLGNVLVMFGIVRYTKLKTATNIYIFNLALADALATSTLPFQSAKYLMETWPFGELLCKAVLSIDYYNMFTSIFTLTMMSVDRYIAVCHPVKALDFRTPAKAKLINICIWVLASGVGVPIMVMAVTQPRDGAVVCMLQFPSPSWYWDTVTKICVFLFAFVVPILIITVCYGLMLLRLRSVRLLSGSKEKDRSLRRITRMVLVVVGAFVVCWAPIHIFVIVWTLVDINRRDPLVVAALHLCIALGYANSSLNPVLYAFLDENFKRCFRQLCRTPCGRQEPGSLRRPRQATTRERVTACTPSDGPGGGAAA
Mu-type opioid receptor (Rattus norvegicus, UniProt P33535), sequence (P33535 whole entry): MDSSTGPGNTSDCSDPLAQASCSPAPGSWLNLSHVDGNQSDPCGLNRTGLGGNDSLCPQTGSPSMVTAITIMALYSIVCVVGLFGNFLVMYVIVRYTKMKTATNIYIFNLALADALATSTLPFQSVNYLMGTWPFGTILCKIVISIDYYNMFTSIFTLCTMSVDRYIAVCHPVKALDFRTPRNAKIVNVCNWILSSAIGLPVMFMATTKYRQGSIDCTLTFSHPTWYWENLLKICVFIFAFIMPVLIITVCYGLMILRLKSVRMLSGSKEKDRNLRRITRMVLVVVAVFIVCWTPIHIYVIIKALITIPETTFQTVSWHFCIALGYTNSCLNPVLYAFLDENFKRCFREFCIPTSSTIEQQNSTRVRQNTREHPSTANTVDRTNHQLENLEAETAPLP

One test concerns the target T1, Delta-type opioid receptor (Mus musculus, UniProt P32300). The test is described as follows: Displacement of deltorphin-II from delta opioid receptor in mouse vas deferens. Format: functional. The settings on record: read-out: pA2 (converted).
In the case of `Cc1cc(O)cc(C)c1C[C@H](N)C(=O)N1Cc2ccccc2CC1C(=O)NCCCCCCNC(=O)[C@@H](N)Cc1ccccc1` (some centres undefined), the Kb was 0.0501 nM.

Regarding `Cc1cc(O)cc(C)c1C[C@H](N)C(=O)N1Cc2ccccc2C[C@H]1C(=O)O` (H-[Dmt]-[Tic]-OH), the Kb is 3.16 nM.

On to `Cc1cc(O)cc(C)c1C[C@H](N)C(=O)N1Cc2ccccc2CC1C(=O)NCCCCCCNC(=O)C1Cc2ccccc2CN1` (some centres undefined), for which the Kb is 0.0398 nM.

With `Cc1cc(O)cc(C)c1C[C@H](N)C(=O)NCCCCCCNC(=O)C1Cc2ccccc2CN1C(=O)[C@@H](N)Cc1c(C)cc(O)cc1C` (some centres undefined), the Kb is 0.0631 nM.

Another test addresses Mu-type opioid receptor (Rattus norvegicus, UniProt P33535). The test is described as follows: Displacement of [3H]DAMGO from mu opioid receptor in rat brain membrane. Format: cell membranes.
Details: not given
Background: In a radioligand displacement assay an active substance lowers the binding of a labelled ligand.
Take `Cc1cc(O)cc(C)c1C[C@H](N)C(=O)N1Cc2ccccc2CC1C(=O)NCCCCCCNC(=O)[C@@H](N)Cc1ccccc1` (some centres undefined): the negative logarithm of the Ki (pKi) – broadly, the Ki on a negative log10 scale, so that one unit is a factor of ten – was 8.72.

`Cc1cc(O)cc(C)c1C[C@H](N)C(=O)N1Cc2ccccc2CC1C(=O)NCCCCCCNC(=O)C1Cc2ccccc2CN1` (some centres undefined) showed a pKi of 8.55.

Molecule `Cc1cc(O)cc(C)c1C[C@H](N)C(=O)NCCCCCCNC(=O)C1Cc2ccccc2CN1C(=O)[C@@H](N)Cc1c(C)cc(O)cc1C` (some centres undefined) had a pKi of 9.42.

The next test concerns the target T1, Delta-type opioid receptor. As to the kind of experiment: Agonistic activity at delta opioid receptor in mouse vas deferens. Format: functional, tissue-based.
Details: not given
Regarding `Cc1cc(O)cc(C)c1C[C@H](N)C(=O)N1Cc2ccccc2CC1C(=O)NCCCCCCNC(=O)[C@@H](N)Cc1ccccc1` (some centres undefined), the pIC50 (in general, −log10 of the IC50, conventionally taken in molar units) is under 5.00.

Consider `Cc1cc(O)cc(C)c1C[C@H](N)C(=O)N1Cc2ccccc2CC1C(=O)NCCCCCCNC(=O)C1Cc2ccccc2CN1` (some centres undefined), for which the pIC50 is under 5.00.

The molecule `Cc1cc(O)cc(C)c1C[C@H](N)C(=O)NCCCCCCNC(=O)C1Cc2ccccc2CN1C(=O)[C@@H](N)Cc1c(C)cc(O)cc1C` (some centres undefined) had a pIC50 of under 5.00.

Another test deals with Opioid receptors; mu & delta (Rattus norvegicus) (UniProt P33533+P33535). The test is described as follows: Selectivity ratio of rat delta opioid receptor over rat mu opioid receptor. The format is protein assay.
Opioid receptors; mu & delta (Rattus norvegicus), sequence (P33533 whole entry, looked up): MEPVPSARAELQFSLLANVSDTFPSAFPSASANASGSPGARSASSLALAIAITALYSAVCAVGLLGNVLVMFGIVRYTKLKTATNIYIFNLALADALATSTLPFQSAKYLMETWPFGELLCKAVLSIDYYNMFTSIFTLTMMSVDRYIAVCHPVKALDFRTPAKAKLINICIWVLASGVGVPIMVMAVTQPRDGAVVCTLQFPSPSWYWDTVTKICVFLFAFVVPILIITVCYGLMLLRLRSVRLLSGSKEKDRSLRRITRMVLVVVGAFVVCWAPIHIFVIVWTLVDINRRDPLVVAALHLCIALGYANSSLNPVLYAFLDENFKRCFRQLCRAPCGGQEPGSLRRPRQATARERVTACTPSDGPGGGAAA
Opioid receptors; mu & delta (Rattus norvegicus), sequence (P33535 whole entry, looked up): as the sequence (P33535 whole entry) above
Details: not given
For the molecule `Cc1cc(O)cc(C)c1C[C@H](N)C(=O)N1Cc2ccccc2CC1C(=O)NCCCCCCNC(=O)[C@@H](N)Cc1ccccc1` (some centres undefined), the Ratio Ki was found to be 2.

On to `Cc1cc(O)cc(C)c1C[C@H](N)C(=O)N1Cc2ccccc2CC1C(=O)NCCCCCCNC(=O)C1Cc2ccccc2CN1` (some centres undefined), for which the Ratio Ki is 22.

As to `Cc1cc(O)cc(C)c1C[C@H](N)C(=O)NCCCCCCNC(=O)C1Cc2ccccc2CN1C(=O)[C@@H](N)Cc1c(C)cc(O)cc1C` (some centres undefined), the Ratio Ki was determined as 2.

The target in a further test is Delta-type opioid receptor (Rattus norvegicus, UniProt P33533). The test is described as follows: Displacement of [3H]deltorphin II from delta opioid receptor in rat brain membrane. The format is cell membranes.
Delta-type opioid receptor (Rattus norvegicus, UniProt P33533), sequence (P33533 whole entry): as the sequence (P33533 whole entry, looked up) above
Details: not given
Consider `Cc1cc(O)cc(C)c1C[C@H](N)C(=O)N1Cc2ccccc2CC1C(=O)NCCCCCCNC(=O)[C@@H](N)Cc1ccccc1` (some centres undefined), for which the pKi was 9.05.

As to `Cc1cc(O)cc(C)c1C[C@H](N)C(=O)N1Cc2ccccc2CC1C(=O)NCCCCCCNC(=O)C1Cc2ccccc2CN1` (some centres undefined), the negative logarithm of the Ki (pKi) was 9.89.

The molecule `Cc1cc(O)cc(C)c1C[C@H](N)C(=O)NCCCCCCNC(=O)C1Cc2ccccc2CN1C(=O)[C@@H](N)Cc1c(C)cc(O)cc1C` (some centres undefined) had a pKi of 9.64.

The target in the next test is Mu-type opioid receptor (Cavia porcellus, UniProt P97266). As to the kind of experiment: Agonistic activity against mu opioid receptor in guinea-pig ileum.
Mu-type opioid receptor (Cavia porcellus, UniProt P97266), sequence (P97266 whole entry): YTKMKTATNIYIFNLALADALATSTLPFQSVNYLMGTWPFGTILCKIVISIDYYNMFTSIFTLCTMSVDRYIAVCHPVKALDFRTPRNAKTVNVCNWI
Details: not given
Format: functional, tissue-based.
Molecule `Cc1cc(O)cc(C)c1C[C@H](N)C(=O)N1Cc2ccccc2CC1C(=O)NCCCCCCNC(=O)[C@@H](N)Cc1ccccc1` (some centres undefined) gave a pIC50 of 5.26.

In turn, `Cc1cc(O)cc(C)c1C[C@H](N)C(=O)N1Cc2ccccc2CC1C(=O)NCCCCCCNC(=O)C1Cc2ccccc2CN1` (some centres undefined) showed a pIC50 of 5.80.

The molecule `Cc1cc(O)cc(C)c1C[C@H](N)C(=O)NCCCCCCNC(=O)C1Cc2ccccc2CN1C(=O)[C@@H](N)Cc1c(C)cc(O)cc1C` (some centres undefined) showed a pIC50 of 5.23.
